Measurements published in patent US11465984B2, “Compound having ERK kinase inhibitory activity and use thereof” (SHANGHAI HAIHE PHARMACEUTICAL CO., LTD., priority 2017, dated 2022).
≈ marks a conversion by molar mass, not a printed value. Where two headings read alike, the source gives them in different places.

How the values were obtained:
[1] = Thermodynamic solubility assay; format: physicochemical; details: thermodynamic from solid, 37° C.
Method: The thermodynamic solubility of the compounds of the invention was determined in this Example
(3) Assay Protocol: Blank Vehicle with Different pH Values: • PH7.4: DPBS • PH6.8: 9900 μL HBSS+100 μL HEPS+5 μL 2N NaOH • […]: DPBS adjusted with 2N HCl to pH 2.0 Incubation: • About 3 mg of the compound was weighed, added with 500 μL of blank vehicle, and shaked at 37° C. for 24 h. Sample Treatment: • After incubation, the samples were centrifuged for 30 min, and the supernatant was transferred to a new EP tube and further centrifuged for 30 min • After centrifugation, the samples were diluted by 100 times with ACN/H2O (V/V, 1:1). • Linear concentration range from 12.5 nM to 1 mM was configured with ACN/H2O (V/V, 1:1). Biological Analysis: • All samples were mixed with water at the 1:1 ratio by volume, centrifuged at 4000 rpm for 5 min, and analyzed by LC-MS/MS. Analysis Methods:
Chromatography Conditions: • Analysis column: Acquity BEH C18 (1.7 μm; 2.1×50 mm, Waters) • Mobile phase A: 0.1% FA in H2O • Mobile phase B: 0.1% FA in CAN/MEOH (9:1, V/V) • Gradient: as shown in the table below.
MS/MS System • Multiple Reaction Monitoring (MRM) mode was used: […]

[2] = Pharmacokinetic study, single IV and PO administration to ICR mice; format: in vivo
Method: The pharmacokinetic parameters of Compound P9 of the invention and the representative compounds of WO2017/114510A1 in mice were determined in this Example.
(1) In Vivo Pharmacokinetics Protocol for Single Intravenous (IV) and Oral (PO) Administration to ICR Mice
The concentration during formulation of test substances was calculated on the basis of pure free base.
The test substance was accurately weighed, and added with the excipients (5% DMSO+5% Solutol+90% saline) in the specified amounts. After complete dissolution, the dosing solution for intravenous injection was obtained at the concentration of 0.2 mg/mL.
The test compound was accurately weighed, and added with the excipients (0.4% methylcellulose (viscosity: 400 cps)) in the specified amount. After sufficiently mixing, the dosing solution for oral administration was obtained at the concentration of 1 mg/mL.
Forty male SPF grade ICR mice were purchased from Shanghai Xipuer-Bikai Laboratory Animal Co., Ltd., and 30 normal healthy ICR mice of them passed the physical examination and were used in this study. Animal weight: 20.12-25.56 g.
Blood was collected through the orbit or through cardiac puncture after carbon dioxide (CO2) euthanasia. About 0.20 milliliter (mL) of blood was collected for each sample with heparin sodium as anticoagulant agent. The samples were placed on ice after collection. […]
The biological samples of the test substances were analyzed by LC-MS/MS. […]
The pharmacokinetic parameters were calculated from the blood concentration data of the drug, using WinNonlin 7.0 to provide the parameters such as AUC0-t, AUC0-∞, MRT0-∞, Cmax, Tmax, and T1/2, and the average and standard deviation thereof.
For those samples with concentrations below the lower limit of quantitation, when calculating the pharmacokinetic parameters, samples collected before Cmax should be calculated as zero, and samples collected at the points after Cmax should be calculated as being below the limit of qualitification (BLQ).

solubility at 24 h ([1]; HBSS/HEPES 10 mM/BSA 0.1% pH 6.8, pH 6.8, aqueous buffer, read-out: Maximum solubility in pH 6.8 HBSS/HEPES 10 mM/BSA 0.1%): 267 ± 3 µM (≈ 124 µg/mL)
solubility at 24 h ([1]; PBS (DPBS) pH 2.0, pH 2, aqueous buffer, read-out: Maximum solubility in pH 2.0 PBS): 2850 ± 62 µM (≈ 1320 µg/mL)
solubility at 24 h ([1]; PBS buffer, pH 7.4, aqueous buffer, read-out: Maximum solubility in pH 7.4 PBS): 544 ± 5.3 µM (≈ 252 µg/mL)
CLz [2]: CLz/(L/hr/kg): 0.36
F ([2]; po): F/(%, po): 60.55
nAUC0-t ([2]; po): nAUC0-t/(ng · h/ mL, po): 1696.3
SMILES: Cn1nccc1Nc1cc(-c2cc(F)c3c(c2)CCN3C(=O)Cc2cccnc2Cl)ccn1 [Example P9, 2-(2-chloropyridin-3-yl)-1-(7-fluoro-5-(2-((1-methyl-1H-pyrazol-5-yl)amino)pyridin-4-yl)indolin-1-yl)ethan-1-one]
